Measured values taken from patent publication US10314923B2, “Silybin injection and preparation method therefor” (TASLY PHARMACEUTICAL GROUP CO., LTD., priority 2015, dated 2019).

Tests used:
[1] = Inclusion stability of silybin injections containing different types of cyclodextrin, standing at room temperature; assay type: physicochemical; conditions: 50 g of cyclodextrin in 1000 ml of water for injection
Description: The types of cyclodextrin recorded in the Chinese patent application CN200410041364.0 include: β-cyclodextrin, hydroxypropyl-β-cyclodextrin, hydroxyethyl-β-cyclodextrin, methyl-β-cyclodextrin, glucosyl-β-cyclodextrin and sulfonyl-β-cyclodextrin. The cyclodextrin adopted in the present invention is sulfobutylether-β-cyclodextrin and is a specific inclusion material for the present invention. In contrast tests, silybin injections containing different types of cyclodextrin are respectively prepared by adopting the same formulation constituents, formulation dosage and preparation process. Standing is preformed at room temperature for one-week, and the inclusion stability of the injections is observed with the passage of time, that is, the time of medicine precipitation is regarded as a study index to screen the types of cyclodextrin.
Allow the injections to stand at room temperature for one week, and respectively observe the inclusion stability of the injections over time, i.e., study the influence of different types of cyclodextrins on the inclusion stability of silybin.

[2] = Wang Hongchen 1983; cited from earlier work
[3] = Verification of preparation method of CN02125823.6: discoloration and UV scanning for destructiveness of NaOH to silybin; assay type: physicochemical; conditions: scanned within the wavelength of 190-600 nm
Description: The Chinese patent application CN02125823.6 with the title “silymarin injection containing cyclodextrin or derivatives thereof” and the publication number of CN1391894A, according to the implementing scheme recorded in the Description, has the key technical features of adding silymarin into an aqueous solution containing cyclodextrin, regulating the pH of the solution to alkalinity using sodium hydroxide to dissolve silybin, and after dissolution, regulating the pH value to be 6.0 to 6.5 using hydrochloric acid to obtain a silymarin cyclodextrin inclusion compound. During verification, the silymarin is replaced with silybin, and the verification is strictly performed according to the implementing scheme described in embodiment 1 of the patent.
Dissolving 3 g of hydroxypropyl-β-cyclodextrin in 10 ml of water for injection, adding 300 mg of silybin, regulating the pH value to be 10 with 1N of NaOH solution, continuously stirring for 5 hours to dissolve the silybin, regulating the pH to be 6.5 with 1N of HCl solution, and performing filtration, bacterium removal, sub-packaging, freeze-drying and sealing, to obtain a silybin freeze-dried powder for injection.
However, for the preparation method of the present invention, the discoloration phenomenon is not found in the whole preparation process. […]

[4] = taken orally; Wu J W et al. 2007; cited from earlier work
[5] = aqueous solution; cited from earlier work

OC[C@H]1O[C@@H]2O[C@H]3[C@H](O)[C@@H](O)[C@@H](O[C@H]4[C@H](O)[C@@H](O)[C@@H](O[C@H]5[C@H](O)[C@@H](O)[C@@H](O[C@H]6[C@H](O)[C@@H](O)[C@@H](O[C@H]7[C@H](O)[C@@H](O)[C@@H](O[C@H]8[C@H](O)[C@@H](O)[C@@H](O[C@H]1[C@H](O)[C@H]2O)O[C@@H]8CO)O[C@@H]7CO)O[C@@H]6CO)O[C@@H]5CO)O[C@@H]4CO)O[C@@H]3CO [β-cyclodextrin]
dissolution of cyclodextrin in water [1]: cannot completely dissolve in water

COc1cc([C@@H]2Oc3cc([C@@H]4Oc5cc(O)cc(O)c5C(=O)[C@H]4O)ccc3O[C@H]2CO)ccc1O [silybin, Silybin]
water solubility and lipid solubility [2]: poor | UV absorption peaks (verification of destructiveness caused by NaOH to silybin) [3]: 287.5 nm | absolute bioavailability [4]: 0.95%

CNC[C@H](O)[C@@H](O)[C@H](O)[C@H](O)CO.COc1cc(C2Oc3ccc(C4Oc5cc(O)cc(O)c5C(=O)C4O)cc3OC2CO)ccc1O (centres unmarked) [silybin N-methylglucamine]
pH value [5]: about 11
